The record followed here is PubChem BioAssay AID328 (DTP/NCI, 2004).

Several values for one entry are separate records, joined by “and”; a condition that tells them apart may be missing. Equal values may be shown once. Inconclusive results and toxic doses are left out.

This test deals with BDF1 mice, P388 leukemia ip, median survival T/C. In words: NCI In Vivo Anticancer Drug Screen. Data for tumor model P388 Leukemia (intraperitoneal) in B6D2F1 (BDF1) mice. The settings on record: endpoint: median survival time, higher = longer survival. Put shortly:
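Steps: implant the tumour, treat one group with compound and another with vehicle, record survival, then divide treated by control.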

Setting [1] is: dose: 6.25 mg/kg/injection, schedule: Q01DX009 (ip), vehicle: Klucel (hydroxypropylcellulose) (HPC).
[2] abbreviates: dose: 12.5 mg/kg/injection, schedule: Q01DX009 (ip), vehicle: Klucel (hydroxypropylcellulose) (HPC).
The mark [3] stands for this setting: dose: 25.0 mg/kg/injection, schedule: Q01DX009 (ip), vehicle: Klucel (hydroxypropylcellulose) (HPC).
[4] abbreviates: dose: 100.0 mg/kg/injection, schedule: Q01DX009 (ip), vehicle: saline with Tween-80.
[5] abbreviates: dose: 200.0 mg/kg/injection, schedule: Q01DX009 (ip), vehicle: saline with Tween-80.
The mark [6] stands for this setting: dose: 400.0 mg/kg/injection, schedule: Q01DX009 (ip), vehicle: saline with Tween-80.
[7] abbreviates: dose: 100.0 mg/kg/injection, schedule: Q04DX003 (ip), vehicle: saline with Tween-80.
Where [8] appears, read: dose: 200.0 mg/kg/injection, schedule: Q04DX003 (ip), vehicle: saline with Tween-80.
Setting [9] is: dose: 400.0 mg/kg/injection, schedule: Q04DX003 (ip), vehicle: saline with Tween-80.
[10] abbreviates: dose: 6.25 mg/kg/injection, schedule: Q01DX009 (ip), vehicle: saline with Tween-80.
[11] abbreviates: dose: 12.5 mg/kg/injection, schedule: Q01DX009 (ip), vehicle: saline with Tween-80.
Setting [12] is: dose: 25.0 mg/kg/injection, schedule: Q01DX009 (ip), vehicle: saline with Tween-80.
Setting [13] is: dose: 50.0 mg/kg/injection, schedule: Q01DX009 (ip), vehicle: saline with Tween-80.
Setting [14] is: dose: 50.0 mg/kg/injection, schedule: Q01DX009 (ip), vehicle: Klucel (hydroxypropylcellulose) (HPC).
Where [15] appears, read: dose: 100.0 mg/kg/injection, schedule: Q01DX001 (ip), vehicle: Klucel (hydroxypropylcellulose) (HPC).
The mark [16] stands for this setting: dose: 200.0 mg/kg/injection, schedule: Q01DX001 (ip), vehicle: Klucel (hydroxypropylcellulose) (HPC).
The mark [17] stands for this setting: dose: 400.0 mg/kg/injection, schedule: Q01DX001 (ip), vehicle: Klucel (hydroxypropylcellulose) (HPC).
Setting [18] is: dose: 50.0 mg/kg/injection, schedule: Q04DX003 (ip), vehicle: saline with Tween-80.
[19] abbreviates: dose: 12.5 mg/kg/injection, schedule: Q04DX003 (ip), vehicle: saline with Tween-80.

As to `CC(=O)c1ccc2ccccc2c1OC(=O)c1cccnc1`, the T/C is 100 % of control (dose: 50.0 mg/kg/injection, schedule: Q01DX009 (ip), vehicle: other); 109 % of control (dose: 100.0 mg/kg/injection, schedule: Q01DX009 (ip), vehicle: other); 118 % of control (dose: 200.0 mg/kg/injection, schedule: Q01DX009 (ip), vehicle: other).
On to `CC(C#N)N(C)C` (centres undefined), for which the T/C is 110 % of control (dose: 10.0 mg/kg/injection, schedule: Q01DX009 (ip), vehicle: saline); 95 % of control (dose: 10.0 mg/kg/injection, schedule: Q04DX003 (ip), vehicle: saline); 91 % of control (dose: 20.0 mg/kg/injection, schedule: Q04DX003 (ip), vehicle: saline); 95 % of control (dose: 40.0 mg/kg/injection, schedule: Q04DX003 (ip), vehicle: saline).
Regarding `O=C(NN(Cn1c(=S)sc2ccccc21)Cn1c(=S)sc2ccccc21)c1ccncc1`, the T/C reads like this: under setting [1], 102 % of control; under setting [2], 120 % of control; under setting [3], 118 % of control.
As to `CC(=O)/C=C/c1ccccc1`, the T/C runs as follows: under setting [4], 91 % of control and 109 % of control; under setting [5], 108 % of control and 118 % of control; under setting [6], 117 % of control.
For the compound `CCCOCNC(=O)c1cccnc1`, the T/C is 95 % of control (dose: 100.0 mg/kg/injection, schedule: Q01DX001 (ip), vehicle: saline); 100 % of control (dose: 200.0 mg/kg/injection, schedule: Q01DX001 (ip), vehicle: saline); 100 % of control (dose: 400.0 mg/kg/injection, schedule: Q01DX001 (ip), vehicle: saline).
Take `O=C1N=C2C=CC=CN2CC1O` (centres undefined): the T/C was 104 % of control under setting [7], 112 % of control under setting [8] and 100 % of control under setting [9].
Consider `CCOC1=Cc2c(oc3c(C(C)(C)C)cc(OCC)cc23)OC(C(C)(C)C)=C1`, for which the T/C is 112 % of control (dose: 3.12 mg/kg/injection, schedule: Q01DX009 (ip), vehicle: saline with Tween-80); 122 % of control under setting [10]; 122 % of control under setting [11]; 100 % of control and 121 % of control under setting [12]; 101 % of control under setting [13].
On to `COc1ccc(C(SCC(N)C(=O)O)(c2ccccc2)c2ccccc2)cc1` (centres undefined), for which the T/C reads like this: (dose: 1.3 mg/kg/injection, schedule: Q01DX009 (ip), vehicle: Klucel (hydroxypropylcellulose) (HPC)) 117 % of control; (dose: 2.0 mg/kg/injection, schedule: Q01DX009 (ip), vehicle: Klucel (hydroxypropylcellulose) (HPC)) 113 % of control; (dose: 4.12 mg/kg/injection, schedule: Q01DX009 (ip), vehicle: Klucel (hydroxypropylcellulose) (HPC)) 155 % of control; under setting [1], 160 % of control and 168 % of control and 175 % of control; under setting [2], 200 % of control; under setting [3], 250 % of control. The T/C is, setting by setting: (dose: 25.0 mg/kg/injection, schedule: Q04DX003 (ip), vehicle: Klucel (hydroxypropylcellulose) (HPC)) 155 % of control; (dose: 33.0 mg/kg/injection, schedule: Q04DX003 (ip), vehicle: Klucel (hydroxypropylcellulose) (HPC)) 154 % of control; under setting [14], 105 % of control; (dose: 50.0 mg/kg/injection, schedule: Q04DX003 (ip), vehicle: Klucel (hydroxypropylcellulose) (HPC)) 170 % of control and 185 % of control; (dose: 66.0 mg/kg/injection, schedule: Q04DX003 (ip), vehicle: Klucel (hydroxypropylcellulose) (HPC)) 272 % of control; (dose: 100.0 mg/kg/injection, schedule: Q04DX003 (ip), vehicle: Klucel (hydroxypropylcellulose) (HPC)) 240 % of control and 205 % of control.
As to `CCCCCCCCCCCCCCCCCCNC(=O)Nc1ccc(C)cc1C`, the T/C is 91 % of control (dose: 100.0 mg/kg/injection, schedule: Q04DX003 (ip), vehicle: saline + alcohol); 108 % of control (dose: 200.0 mg/kg/injection, schedule: Q04DX003 (ip), vehicle: saline + alcohol); 108 % of control (dose: 400.0 mg/kg/injection, schedule: Q04DX003 (ip), vehicle: saline + alcohol).
Regarding `CCN(CCP(c1ccccc1)c1ccccc1)CCP(c1ccccc1)c1ccccc1`, the T/C is, setting by setting: under setting [13], 86 % of control; (dose: 66.0 mg/kg/injection, schedule: Q04DX003 (ip), vehicle: saline with Tween-80) 150 % of control; under setting [7], 159 % of control.
Turning to `Nc1ccc(O)cc1`, the T/C was 109 % of control (dose: 264.0 mg/kg/injection, schedule: Q01DX009 (ip), vehicle: saline sonified) and 90 % of control (dose: 400.0 mg/kg/injection, schedule: Q01DX009 (ip), vehicle: saline sonified).
Regarding `Cc1ccc(COC(=O)c2ccccc2)cc1`, the T/C by setting is: under setting [15], 104 % of control; under setting [16], 95 % of control; under setting [17], 104 % of control.
With `CNS(=O)(=O)c1ccc2c(c1)nc(SC)n2C`, the T/C under setting [7] was 100 % of control, the T/C under setting [8] is 100 % of control and the T/C under setting [9] was 104 % of control.
In the case of `c1cc2c(c(NC3=NCCO3)c1)CCCC2`, the T/C runs as follows: (dose: 37.5 mg/kg/injection, schedule: Q01DX009 (ip), vehicle: saline with Tween-80) 113 % of control; (dose: 75.0 mg/kg/injection, schedule: Q01DX009 (ip), vehicle: saline with Tween-80) 118 % of control; (dose: 150.0 mg/kg/injection, schedule: Q01DX009 (ip), vehicle: saline with Tween-80) 120 % of control.
On to `Cc1ccc(C(=O)O)cc1S(=O)(=O)F`, for which the T/C is 114 % of control under setting [12]; 104 % of control under setting [13]; 101 % of control under setting [18]; 98 % of control under setting [4]; 102 % of control under setting [7]; 104 % of control under setting [5]. Besides, the T/C under setting [8] was 101 % of control; the T/C (dose: 300.0 mg/kg/injection, schedule: Q01DX009 (ip), vehicle: saline with Tween-80) is 110 % of control; the T/C under setting [6] is 123 % of control; the T/C under setting [9] is 101 % of control.
Take `NC1=NS(=O)(=O)N=C(N)C1=NNc1cccc(Cl)c1`: the T/C was 94 % of control under setting [13], 103 % of control under setting [4] and 92 % of control under setting [5].
As for `NC(=O)c1ccc(N)nc1`, the T/C was 121 % of control (dose: 6.25 mg/kg/injection, schedule: Q04DX003 (ip), vehicle: saline); 100 % of control (dose: 8.33 mg/kg/injection, schedule: Q04DX003 (ip), vehicle: saline with Tween-80); 100 % of control under setting [19]; 105 % of control and 108 % of control (dose: 18.75 mg/kg/injection, schedule: Q04DX003 (ip), vehicle: saline with Tween-80); 114 % of control (dose: 25.0 mg/kg/injection, schedule: Q04DX003 (ip), vehicle: saline).
Turning to `O=C(c1ccccc1)C1CC1c1ccccc1` (centres undefined), the T/C is 120 % of control under setting [15], 104 % of control under setting [16] and 100 % of control under setting [17].
In the case of `CCCC(O)Cc1c[nH]c(=O)[nH]c1=O` (centres undefined), the T/C is 101 % of control under setting [10]; 92 % of control under setting [11]; 101 % of control under setting [19]; 106 % of control under setting [12]; 104 % of control (dose: 25.0 mg/kg/injection, schedule: Q04DX003 (ip), vehicle: saline with Tween-80); 93 % of control under setting [13]. For the same compound, under setting [18], the T/C is 100 % of control.
As for `CCN(CC)CCC1(C(N)=O)Cc2ccccc2N(CC)c2ccccc21` (centres undefined), the T/C under setting [4] was 100 % of control and the T/C under setting [5] is 100 % of control.
Consider `O=S1(=O)CCN(C2CCCC2)CC1`, for which the T/C is 104 % of control under setting [14]; 121 % of control (dose: 100.0 mg/kg/injection, schedule: Q01DX009 (ip), vehicle: Klucel (hydroxypropylcellulose) (HPC)); 111 % of control (dose: 200.0 mg/kg/injection, schedule: Q01DX009 (ip), vehicle: Klucel (hydroxypropylcellulose) (HPC)).
Regarding `COc1cc2c(cc1OC)/C(=C1\OC(=O)c3c1ccc1c3OCO1)N(C)CC2`, the T/C reads like this: under setting [7], 100 % of control; under setting [8], 92 % of control; under setting [9], 88 % of control.
